Reference: patent publication US12503484B2, “Androstane derivatives with activity as pure or predominantly pure stimulators of SERCA2a for the treatment of heart failure” (Seismic Pharmaceuticals, priority 2019, dated 2025)
Structures can show the parent of a compound that is named as a salt.

Columns and labels:
[1] = test system: panel of receptors; experiment: Radioligand binding to a panel of receptors (Eurofins); settings: 10 μM
[2] = test system: ATPase, Ca2+, skeletal muscle; experiment: Receptor binding assay panel: ATPase, Ca2+, skeletal muscle; format: biochemical, pig; settings: 10 μM
Protocol: (§1) Radioligand binding to a panel of receptors was carried out by Eurofins on crude membrane preparations according to published procedures and by using appropriate reference standard (Eurofin, Taiwan, compound code CVie216-3 (1226840), study #TW04-0004235, quote #TW04-0004235-Q04, for Cvie Therapeutics Limited, Taiwan). […] was tested at the concentration of 10 μM.

[3] = target: HMG-CoA Reductase (Homo sapiens (Human), UniProt P04035); experiment: Receptor binding assay panel: HMG-CoA Reductase; format: biochemical
[4] = target: Monoamine Oxidase MAO-A (Homo sapiens (Human), UniProt P21397); experiment: Receptor binding assay panel: Monoamine Oxidase MAO-A; format: biochemical
[5] = target: Monoamine Oxidase MAO-B (Homo sapiens (Human), UniProt P27338); experiment: Receptor binding assay panel: Monoamine Oxidase MAO-B; format: biochemical
[6] = test system: Phosphodiesterase PDE3; experiment: Receptor binding assay panel: Phosphodiesterase PDE3; format: biochemical, Human; settings: 10 μM
[7] = target: Adenosine A1 (Homo sapiens (Human), UniProt P30542); experiment: Receptor binding assay panel: Adenosine A1
[8] = target: Adenosine A2A (Homo sapiens (Human), UniProt P29274); experiment: Receptor binding assay panel: Adenosine A2A
[9] = target: Adrenergic α1B (Rattus norvegicus (Rat), UniProt P15823); experiment: Receptor binding assay panel: Adrenergic α1B
[10] = target: Adrenergic β1 (Homo sapiens (Human), UniProt P08588); experiment: Receptor binding assay panel: Adrenergic β1
[11] = target: Adrenergic β2 (Homo sapiens (Human), UniProt P07550); experiment: Receptor binding assay panel: Adrenergic β2
[12] = target: Androgen (Testosterone) (Homo sapiens (Human), UniProt P10275); experiment: Receptor binding assay panel: Androgen (Testosterone)
Protocol: as §1

[13] = target: Angiotensin AT1 (Homo sapiens (Human), UniProt P30556); experiment: Receptor binding assay panel: Angiotensin AT1
[14] = test system: Calcium Channel L-type, Dihydropyridine; experiment: Receptor binding assay panel: Calcium Channel L-type, Dihydropyridine; design: species or system rat; settings: 10 μM
[15] = target: Dopamine D1 (Homo sapiens (Human), UniProt P21728); experiment: Receptor binding assay panel: Dopamine D1
[16] = target: Dopamine D2s (Homo sapiens (Human), UniProt P14416); experiment: Receptor binding assay panel: Dopamine D2s
[17] = target: Estrogen ERβ (Homo sapiens (Human), UniProt Q92731); experiment: Receptor binding assay panel: Estrogen ERβ
[18] = test system: GABAA, Flunitrazepam, Central; experiment: Receptor binding assay panel: GABAA, Flunitrazepam, Central; design: species or system rat; settings: 10 μM
Protocol: as §1

[19] = test system: GABAA, Muscimol, Central; experiment: Receptor binding assay panel: GABAA, Muscimol, Central; design: species or system rat; settings: 10 μM
Protocol: as §1

[20] = target: Glucocorticoid (Homo sapiens (Human), UniProt P04150); experiment: Receptor binding assay panel: Glucocorticoid
[21] = test system: Glutamate, NMDA, Phencyclidine; experiment: Receptor binding assay panel: Glutamate, NMDA, Phencyclidine; design: species or system rat; settings: 10 μM
Protocol: as §1

[22] = target: Histamine H1 (Homo sapiens (Human), UniProt P35367); experiment: Receptor binding assay panel: Histamine H1
[23] = test system: Imidazoline I2, Central; experiment: Receptor binding assay panel: Imidazoline I2, Central; design: species or system rat; settings: 10 μM
Protocol: as §1

[24] = target: Muscarinic M2 (Homo sapiens (Human), UniProt P08172); experiment: Receptor binding assay panel: Muscarinic M2
Protocol: as §1

[25] = target: Muscarinic M3 (Homo sapiens (Human), UniProt P20309); experiment: Receptor binding assay panel: Muscarinic M3
Protocol: as §1

[26] = target: Muscarinic M5 (Homo sapiens (Human), UniProt P08912); experiment: Receptor binding assay panel: Muscarinic M5
Protocol: as §1

[27] = target: Nicotinic Acetylcholine α3β4 (Homo sapiens (Human), UniProt P30926+P32297); experiment: Receptor binding assay panel: Nicotinic Acetylcholine α3β4
Protocol: as §1

[28] = target: Opiate μ (OP3, MOP) (Homo sapiens (Human), UniProt P35372); experiment: Receptor binding assay panel: Opiate μ (OP3, MOP)
Protocol: as §1

[29] = test system: Phorbol Ester; experiment: Receptor binding assay panel: Phorbol Ester; design: species or system mouse; settings: 10 μM
[30] = target: Potassium Channel (KATP) (Cricetus cricetus (Black-bellied hamster), UniProt Q09427); experiment: Receptor binding assay panel: Potassium Channel (KATP)
Protocol: as §1

[31] = target: hERG potassium channel (Homo sapiens (Human), UniProt Q12809); experiment: Receptor binding assay panel: Potassium Channel hERG; settings: crude membrane preparations
Protocol: as §1

[32] = target: Sigma σ2 (Homo sapiens (Human), UniProt Q5BJF2); experiment: Receptor binding assay panel: Sigma σ2
[33] = in vivo; design: dose or concentration left out as unconfirmed; settings: rat
[34] = target: CYP450, 19 (CYP19) (Homo sapiens (Human), UniProt P11511); experiment: Receptor binding assay panel: CYP450, 19

Sequence of Sigma σ2 (Q5BJF2 whole entry): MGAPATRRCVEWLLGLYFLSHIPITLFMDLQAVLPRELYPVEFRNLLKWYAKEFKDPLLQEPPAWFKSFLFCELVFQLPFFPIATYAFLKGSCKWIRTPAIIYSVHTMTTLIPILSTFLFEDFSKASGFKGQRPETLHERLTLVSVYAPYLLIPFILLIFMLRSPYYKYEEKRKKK
Sequence of Nicotinic Acetylcholine α3β4 (P32297 32-505 limits assumed): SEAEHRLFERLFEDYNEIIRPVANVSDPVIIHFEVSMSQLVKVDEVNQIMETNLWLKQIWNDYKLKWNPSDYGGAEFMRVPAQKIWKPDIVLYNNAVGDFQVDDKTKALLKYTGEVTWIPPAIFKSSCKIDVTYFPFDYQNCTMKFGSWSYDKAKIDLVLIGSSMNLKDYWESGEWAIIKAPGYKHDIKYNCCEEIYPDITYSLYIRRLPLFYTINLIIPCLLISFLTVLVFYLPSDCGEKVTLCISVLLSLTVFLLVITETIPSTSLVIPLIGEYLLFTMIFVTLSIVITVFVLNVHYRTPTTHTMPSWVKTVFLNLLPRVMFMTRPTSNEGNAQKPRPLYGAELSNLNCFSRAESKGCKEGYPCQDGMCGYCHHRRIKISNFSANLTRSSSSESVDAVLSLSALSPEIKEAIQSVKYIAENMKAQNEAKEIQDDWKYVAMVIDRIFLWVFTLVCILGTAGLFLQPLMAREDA
Sequence of Nicotinic Acetylcholine α3β4 (P30926 22-498 limits assumed): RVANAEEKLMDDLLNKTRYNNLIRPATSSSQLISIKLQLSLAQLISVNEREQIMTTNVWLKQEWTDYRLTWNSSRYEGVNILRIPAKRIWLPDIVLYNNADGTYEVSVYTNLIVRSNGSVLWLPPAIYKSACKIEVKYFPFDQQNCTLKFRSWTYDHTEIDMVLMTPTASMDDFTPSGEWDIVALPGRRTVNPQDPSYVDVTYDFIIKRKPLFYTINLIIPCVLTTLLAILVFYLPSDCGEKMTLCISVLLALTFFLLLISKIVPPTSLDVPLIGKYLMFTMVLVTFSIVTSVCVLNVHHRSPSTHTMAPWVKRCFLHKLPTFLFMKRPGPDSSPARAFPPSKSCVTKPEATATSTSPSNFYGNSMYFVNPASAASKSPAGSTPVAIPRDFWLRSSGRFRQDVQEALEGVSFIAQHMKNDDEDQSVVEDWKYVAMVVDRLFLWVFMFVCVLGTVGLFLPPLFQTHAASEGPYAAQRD
Sequence of Histamine H1 (P35367 whole entry): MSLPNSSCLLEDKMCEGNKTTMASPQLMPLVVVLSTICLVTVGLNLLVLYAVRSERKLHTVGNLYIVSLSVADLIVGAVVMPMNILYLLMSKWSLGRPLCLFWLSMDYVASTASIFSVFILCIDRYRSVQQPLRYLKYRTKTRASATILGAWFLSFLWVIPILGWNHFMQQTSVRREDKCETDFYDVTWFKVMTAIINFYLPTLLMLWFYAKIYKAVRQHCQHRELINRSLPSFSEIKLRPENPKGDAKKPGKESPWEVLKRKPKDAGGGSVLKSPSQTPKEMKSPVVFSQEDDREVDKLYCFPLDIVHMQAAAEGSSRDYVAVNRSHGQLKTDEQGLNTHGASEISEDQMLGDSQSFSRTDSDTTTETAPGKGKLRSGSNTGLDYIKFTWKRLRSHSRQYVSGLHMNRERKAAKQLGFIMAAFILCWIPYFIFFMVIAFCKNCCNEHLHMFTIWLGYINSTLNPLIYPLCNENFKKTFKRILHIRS
Sequence of HMG-CoA Reductase (P04035 426-888): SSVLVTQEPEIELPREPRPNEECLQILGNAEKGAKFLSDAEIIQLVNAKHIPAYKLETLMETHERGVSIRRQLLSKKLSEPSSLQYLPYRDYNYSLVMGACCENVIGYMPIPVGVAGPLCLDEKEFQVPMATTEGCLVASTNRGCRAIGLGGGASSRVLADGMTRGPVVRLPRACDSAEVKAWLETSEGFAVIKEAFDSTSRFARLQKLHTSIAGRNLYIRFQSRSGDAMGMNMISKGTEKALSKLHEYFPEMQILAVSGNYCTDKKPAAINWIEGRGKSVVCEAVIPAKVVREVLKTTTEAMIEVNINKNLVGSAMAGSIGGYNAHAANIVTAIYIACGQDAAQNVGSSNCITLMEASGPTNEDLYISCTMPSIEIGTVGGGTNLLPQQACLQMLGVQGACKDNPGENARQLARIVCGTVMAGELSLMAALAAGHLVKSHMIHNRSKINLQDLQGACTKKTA
Sequence of Adenosine A1 (P30542 whole entry): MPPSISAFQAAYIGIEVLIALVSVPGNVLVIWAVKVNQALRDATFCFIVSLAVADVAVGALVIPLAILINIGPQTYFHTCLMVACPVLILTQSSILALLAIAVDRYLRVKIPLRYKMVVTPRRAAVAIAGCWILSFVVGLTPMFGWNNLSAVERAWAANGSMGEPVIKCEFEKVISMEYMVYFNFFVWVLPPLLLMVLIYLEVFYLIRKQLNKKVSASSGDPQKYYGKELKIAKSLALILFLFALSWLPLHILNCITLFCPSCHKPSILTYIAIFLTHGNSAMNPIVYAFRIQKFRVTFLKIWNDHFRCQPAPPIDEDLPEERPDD
Sequence of Muscarinic M3 (P20309 whole entry, looked up): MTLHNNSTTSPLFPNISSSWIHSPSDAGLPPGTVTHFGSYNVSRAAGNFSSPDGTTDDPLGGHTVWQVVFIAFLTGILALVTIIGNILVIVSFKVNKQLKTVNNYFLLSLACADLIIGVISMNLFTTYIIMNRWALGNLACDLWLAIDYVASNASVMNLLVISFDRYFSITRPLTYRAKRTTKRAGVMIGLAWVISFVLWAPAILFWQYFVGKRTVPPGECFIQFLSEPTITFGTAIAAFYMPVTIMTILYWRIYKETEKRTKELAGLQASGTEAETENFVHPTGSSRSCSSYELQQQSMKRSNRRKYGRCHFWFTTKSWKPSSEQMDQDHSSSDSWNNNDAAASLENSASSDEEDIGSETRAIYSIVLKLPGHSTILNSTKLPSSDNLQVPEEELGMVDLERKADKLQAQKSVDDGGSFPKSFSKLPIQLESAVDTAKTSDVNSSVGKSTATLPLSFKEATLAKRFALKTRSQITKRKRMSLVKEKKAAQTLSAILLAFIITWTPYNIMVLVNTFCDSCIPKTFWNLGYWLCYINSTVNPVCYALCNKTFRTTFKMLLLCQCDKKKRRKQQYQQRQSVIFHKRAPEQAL
Sequence of Dopamine D1 (P21728 whole entry): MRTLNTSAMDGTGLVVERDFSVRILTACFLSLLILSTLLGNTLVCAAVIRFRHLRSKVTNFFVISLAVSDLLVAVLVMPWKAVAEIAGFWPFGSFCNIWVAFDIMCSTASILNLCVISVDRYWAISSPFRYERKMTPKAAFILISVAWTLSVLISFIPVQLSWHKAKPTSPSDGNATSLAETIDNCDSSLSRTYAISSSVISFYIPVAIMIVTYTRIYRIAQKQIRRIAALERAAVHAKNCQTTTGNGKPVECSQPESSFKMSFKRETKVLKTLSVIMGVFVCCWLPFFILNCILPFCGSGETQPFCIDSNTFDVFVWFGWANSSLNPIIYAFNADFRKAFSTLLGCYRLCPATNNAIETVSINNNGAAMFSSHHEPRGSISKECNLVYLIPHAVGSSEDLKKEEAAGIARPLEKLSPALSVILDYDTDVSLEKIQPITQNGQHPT
Sequence of Muscarinic M2 (P08172 whole entry): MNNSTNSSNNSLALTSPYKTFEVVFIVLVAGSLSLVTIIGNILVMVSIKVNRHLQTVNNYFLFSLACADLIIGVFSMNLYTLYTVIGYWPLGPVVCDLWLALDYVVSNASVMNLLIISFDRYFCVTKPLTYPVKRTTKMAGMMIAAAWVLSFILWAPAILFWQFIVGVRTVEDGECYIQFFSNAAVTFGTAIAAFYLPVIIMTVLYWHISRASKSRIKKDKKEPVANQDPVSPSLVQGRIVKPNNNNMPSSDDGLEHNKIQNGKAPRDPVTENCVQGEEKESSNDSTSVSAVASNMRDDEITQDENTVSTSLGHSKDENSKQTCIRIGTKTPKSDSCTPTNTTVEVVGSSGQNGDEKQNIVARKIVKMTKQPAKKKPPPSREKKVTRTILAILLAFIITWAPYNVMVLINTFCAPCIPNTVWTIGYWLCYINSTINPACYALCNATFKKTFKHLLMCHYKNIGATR
Sequence of Estrogen ERβ (Q92731 whole entry): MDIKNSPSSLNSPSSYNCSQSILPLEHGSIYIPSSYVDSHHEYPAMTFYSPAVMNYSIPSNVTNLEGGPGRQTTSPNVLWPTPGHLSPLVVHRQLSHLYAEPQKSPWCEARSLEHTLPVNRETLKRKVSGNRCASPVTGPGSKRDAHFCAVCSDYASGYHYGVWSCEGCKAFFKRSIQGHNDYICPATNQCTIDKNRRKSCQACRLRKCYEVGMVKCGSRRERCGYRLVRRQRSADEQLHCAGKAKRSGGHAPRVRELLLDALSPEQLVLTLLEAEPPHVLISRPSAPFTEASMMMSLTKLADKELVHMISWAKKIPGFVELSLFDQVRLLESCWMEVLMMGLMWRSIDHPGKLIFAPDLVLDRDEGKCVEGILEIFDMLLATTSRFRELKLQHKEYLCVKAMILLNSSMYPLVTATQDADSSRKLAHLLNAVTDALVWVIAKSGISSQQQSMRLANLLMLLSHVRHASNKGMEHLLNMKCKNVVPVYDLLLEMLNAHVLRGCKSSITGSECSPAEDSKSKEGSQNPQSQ
Sequence of Adrenergic α1B (P15823 whole entry): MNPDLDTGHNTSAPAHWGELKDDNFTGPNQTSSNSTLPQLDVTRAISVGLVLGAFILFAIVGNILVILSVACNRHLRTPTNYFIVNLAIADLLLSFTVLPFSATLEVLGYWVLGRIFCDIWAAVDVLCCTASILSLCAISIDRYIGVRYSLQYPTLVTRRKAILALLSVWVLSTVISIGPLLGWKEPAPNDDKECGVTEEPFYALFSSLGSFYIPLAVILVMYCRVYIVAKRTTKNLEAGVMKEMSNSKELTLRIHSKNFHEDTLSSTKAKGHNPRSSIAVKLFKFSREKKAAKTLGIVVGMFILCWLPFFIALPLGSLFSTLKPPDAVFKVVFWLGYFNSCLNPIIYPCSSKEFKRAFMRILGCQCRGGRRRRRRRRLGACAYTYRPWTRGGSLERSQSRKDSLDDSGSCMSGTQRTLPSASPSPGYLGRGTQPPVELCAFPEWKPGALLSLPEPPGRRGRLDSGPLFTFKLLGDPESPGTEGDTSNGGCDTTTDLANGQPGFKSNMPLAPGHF

## C[C@]12CC[C@H](CC(=O)O)CC1C(O)CC1C2CC[C@]2(C)C(=O)CCC12 (stereo in doubt) [CVie216-salt, 2-(6beta-hydroxy-17-oxoandrostane-3-yl) acetic acid]
[1]
  interaction on a panel of receptors (in words): No significant interaction
[2]
  % inhib: −1%
[3]
  inhibition at 10 µM: -4%
[4]
  inhibition at 10 µM: 1%
[5]
  inhibition at 10 µM: -2%
[6]
  % inhib: −25%
[7]
  inhibition at 10 µM: -1%
[8]
  inhibition at 10 µM: -1%
[9]
  inhibition at 10 µM: 6%
[10]
  inhibition at 10 µM: 2%
[11]
  inhibition at 10 µM: -6%
[12]
  inhibition at 10 µM: 6%
[13]
  inhibition at 10 µM: 1%
[14]
  % inhib: −20%
[15]
  inhibition at 10 µM: 13%
[16]
  inhibition at 10 µM: -4%
[17]
  inhibition at 10 µM: -6%
[18]
  % inhib: 1%
[19]
  % inhib: 2%
[20]
  inhibition at 10 µM: -9%
[21]
  % inhib: −7%
[22]
  inhibition at 10 µM: 12%
[23]
  % inhib: 1%
[24]
  inhibition at 10 µM: -20%
[25]
  inhibition at 10 µM: -6%
[26]
  inhibition at 10 µM: 0%
[27]
  inhibition at 10 µM: -3%
[28]
  inhibition at 10 µM: 11%
[29]
  % inhib: −7%
[30]
  inhibition at 10 µM: -11%
[31]
  inhibition at 10 µM: 0%
[32]
  inhibition at 10 µM: 4%
[33]
  bioavailability: 16.9%
[34]
  inhibition at 10 µM: 0%
